The source made the active and inactive calls. The calls are words filed in the database; no cut-off is given here.
Tests used:
Rattus norvegicus [1] = test: Inhibition of oxygen-induced retinal angiogenesis in Sprague-Dawley rat dosed in right eye at stage at P9 and P11 during ischemic phase that follows oxygen exposure by epifluorescent microscopy; type: functional, organism-based
Mus musculus = test: Inhibition of corneal neovascularization in C57 mouse dosed via implanted with pumps at 1 uL/hr for 7 days by fluorescence microscopy; type: functional, organism-based
K562 = test: Inhibition of cell adhesion in human K562 cells at 0.5 uM pre-incubated for 30 mins before cell adhesion to fibronectin for 30 mins by crystal violet staining based assay; type: functional
Rattus norvegicus [2] = test: Inhibition of retinal angiogenesis in newborn Sprague-Dawley rat dosed intravitreally at P1 stage and P3 by epifluorescent microscopy; type: functional, organism-based

Cc1cc(C)c(C(=O)N[C@@H](CNC(=O)CO[C@@H]2C[C@@H](CNc3ccccn3)N(C(=O)OCc3ccccc3)C2)C(=O)O)c(C)c1
inhibition (Rattus norvegicus [1]): Active | inhibition (Mus musculus): Active | inhibition (K562): Active

C#CCOC(=O)N1C[C@H](OCC(=O)NC[C@H](NS(=O)(=O)c2c(C)cc(C)cc2C)C(=O)O)C[C@H]1CNc1ccccn1
inhibition (Rattus norvegicus [1]): Active | inhibition (Mus musculus): Active

CC(C)(C)C(=O)N[C@@H](CNC(=O)CO[C@@H]1C[C@@H](CNc2ccccn2)N(C(=O)OCc2ccccc2)C1)C(=O)O
inhibition (Rattus norvegicus [1]): Active | inhibition (Mus musculus): Active

COc1ccnc(NC[C@@H]2C[C@@H](OCC(=O)NC[C@H](NC(=O)C3(C)CCCCC3)C(=O)O)CN2C(=O)CC(C)(C)C)c1
inhibition (Rattus norvegicus [1]): Active | inhibition (Mus musculus): Active

Cc1cc(C)c(S(=O)(=O)N[C@@H](CNC(=O)CO[C@@H]2C[C@@H](CNc3ccccn3)N(C(=O)OCC(C)C)C2)C(=O)O)c(C)c1
inhibition (Rattus norvegicus [1]): Active | inhibition (Mus musculus): Active

COc1cccc(OC)c1C(=O)N[C@@H](CNC(=O)CO[C@@H]1C[C@@H](CNc2ccccn2)N(C(=O)OCc2ccccc2)C1)C(=O)O
inhibition (Rattus norvegicus [1]): Active | inhibition (Mus musculus): Active

CCC(C)(C)C(=O)N[C@@H](CNC(=O)CO[C@@H]1C[C@@H](CNc2ccccn2)N(C(=O)OCc2ccccc2)C1)C(=O)O
inhibition (Rattus norvegicus [1]): Active | inhibition (Mus musculus): Active

O=C(CO[C@@H]1C[C@@H](CNc2ccccn2)N(C(=O)OCc2ccccc2)C1)NC[C@H](NC(=O)C1CCCCC1)C(=O)O
inhibition (Rattus norvegicus [1]): Active | inhibition (Mus musculus): Active

Cc1cc(C)c(S(=O)(=O)N[C@@H](CNC(=O)CO[C@@H]2C[C@@H](CNc3ccccn3)N(C(=O)OCc3ccccc3)C2)C(=O)O)c(C)c1
inhibition (Rattus norvegicus [2]): Active | inhibition (Rattus norvegicus [1]): Active | inhibition (Mus musculus): Active

Cc1cccc(C)c1C(=O)N[C@@H](CNC(=O)CO[C@@H]1C[C@@H](CNc2ccccn2)N(C(=O)OCc2ccccc2)C1)C(=O)O
inhibition (Rattus norvegicus [1]): Active | inhibition (Mus musculus): Active

O=C(CO[C@@H]1C[C@@H](CNc2ccccn2)N(C(=O)OCc2ccccc2)C1)NC[C@H](NC(=O)c1ccccc1Cl)C(=O)O
inhibition (Rattus norvegicus [1]): Active | inhibition (Mus musculus): Active

Cc1cc(C)c(S(=O)(=O)N[C@@H](CNC(=O)CO[C@@H]2C[C@@H](CNc3ccccn3)N(C(=O)CC(C)(C)C)C2)C(=O)O)c(C)c1
inhibition (Rattus norvegicus [1]): Active | inhibition (Mus musculus): Active

Cc1cc(C)c(S(=O)(=O)N[C@@H](CNC(=O)CO[C@@H]2C[C@@H](CNc3ccccn3)N(C(=O)NC3CCCC3)C2)C(=O)O)c(C)c1
inhibition (Rattus norvegicus [1]): Active | inhibition (Mus musculus): Active

O=C(CO[C@@H]1C[C@@H](CNc2ccccn2)N(C(=O)OCc2ccccc2)C1)NC[C@H](NC(=O)c1ccccc1[N+](=O)[O-])C(=O)O
inhibition (Rattus norvegicus [1]): Active | inhibition (Mus musculus): Active
